In paper PMC6668147, “Ancient role of vasopressin/oxytocin-type neuropeptides as regulators of feeding revealed in an echinoderm” (BMC Biology, 2019):
Entries after “also recorded” stand apart in the source; their conditions may differ. Like-named read-outs stand apart in the source and are kept apart here.

Columns and labels:
mammals [1] = conditions: cited from earlier work
Description: Physiological processes and behaviour are controlled and regulated by a huge variety of neuronally secreted peptide signalling molecules (neuropeptides), which typically exert their effects on target cells by binding to cognate G-protein coupled receptors (GPCRs). Amongst the most intensely studied neuropeptides are vasopressin (VP) and oxytocin (OT). VP and OT are structurally related neuropeptides that were originally discovered based on their peripheral actions as pituitary hormones in mammals. VP is a cyclic and amidated nonapeptide (CYFQNCPRG-NH2; with a disulphide bridge betwee ...

[2] = system: A. rubens VP/OT-type receptor; test: Ca2+-induced luminescence in CHO-K1/G5A cells expressing the A. rubens VP/OT-type receptor and Gα16; type: cell-based, Asterias rubens; conditions: 10^−4 M; Wilcoxon signed-rank test vs basal media; n = 9
Description: A pBluescript SKII (+) vector containing the A. rubens VP/OT-type receptor cDNA as an insert (see above) was used as a template to amplify by PCR the open reading frame of the VP/OT-type receptor. To accomplish this, the oligonucleotides 5′-ggatccCACCATGACGCCCTC-3′ (upstream) and 5′-cccgggCTACATGTGAGCGGAAGCA-3′ (downstream) were used as primers and the PCR product was subcloned into the eukaryotic expression vector pcDNA 3.1+, which had been cut with the restriction enzymes BamHI and […]. For the upstream primer, a partial Kozak translation initiation sequence (CACC) was introduced before the start codon to optimise the initiation of translation.
For this assay, Chinese hamster ovary (CHO-K1) cells stably expressing the Ca^2+-sensitive bioluminescent GFP-aequorin fusion protein—G5A (CHO-K1/G5A cells) are co-transfected with plasmids containing a G-protein coupled receptor cDNA insert and plasmids containing an insert encoding the promiscuous G-protein Gα16. If a candidate ligand activates the expressed receptor, the promiscuous Gα16 protein triggers the activation of the IP3 signalling pathway, causing an increase in intracellular Ca^2+ and luminescence. […] Asterotocin at concentrations ranging from 10^−4 to 10^−12 M (n = 3) was pipetted into the wells of clear-bottomed 96-well plates (Sigma-Aldrich), then a FLUOstar Omega Plate Reader (BMG LABTECH) was used to inject a fixed amount of transfected CHO-K1 cells into each well sequentially, and luminescence was measured for a 35-s period after injection. Luminescence measurements were normalised to the maximum response obtained in each experiment (100%) and the response obtained with the vehicle media (0%). […] The half maximal effective concentration (EC50) was calculated from the dose-response curve in Prism 6.0c. […] A Wilcoxon signed-rank test was performed to compare luminescence of cells exposed to asterotocin, vasopressin, oxytocin and NGFFYamide (at 10^−4 M) with luminescence of cells in basal media (control).

mammals [3] = conditions: cited from earlier work; remark: listed apart in the source
Description: Our discovery that asterotocin has such striking feeding-related effects in starfish provides a basis to examine if VP/OT-type neuropeptides are likewise involved in the regulation of feeding-associated processes in other taxa. Currently, little is known about the physiological roles of VP/OT-type neuropeptides in other echinoderms. […] This effect of echinotocin as a muscle contractant is consistent with the myoexcitatory eff ...

A. rubens [4] = test: In vivo cardiac stomach eversion, dose dependence; design: species or system Asterias rubens; conditions: 10 μl of 10^−3 M S2 into perivisceral coelom; n = 5
Description: During feeding in A. rubens, the cardiac stomach is everted out of the mouth over the digestible soft tissue of prey (e.g. mussels), and to accomplish this, the cardiac stomach must be relaxed. […] First, a pilot experiment was performed using 30 starfish (diameter 6.4–7.5 cm) that had been starved for 1 week to normalise their physiological status. Then animals were injected with different doses of asterotocin (10 μl of 10^−6–10^−3 M; n = 5 for each dose) or with 10 μl of water (negative control; n = 5) or with 10 μl of 10^−3 M S2 (positive control; n = 5). The animals were injected at a site located in the aboral body wall of an arm proximal to the junction with the central disc and adjacent to the madreporite. Care was taken to ensure that the tip of a Hamilton syringe used for injections was pushed through the body wall into the perivisceral coelom but not too deep so as to avoid injecting into the digestive organs. The doses of asterotocin injected were informed by our analysis of the volume of the perivisceral coelomic fluid in A. rubens. […] Following injection, the starfish were placed in a glass vessel containing seawater so that the mouth of the animal could be observed from below.

[5] = system: cardiac stomach preparations from A. rubens; conditions: in vitro; cited from earlier work
Description: Therefore, it was of interest here to investigate the effects of asterotocin on muscle preparations from A. rubens. […] The percentage relaxation at each concentration was calculated relative to the maximal relaxing effect produced by asterotocin in each preparation. To enable the assessment of the magnitude of the relaxing effect of asterotocin on cardiac stomach, experiments were performed to compare the effect asterotocin with the effect of the neuropeptide SALMFamide-2 (S2; […]-NH2), which has been shown previously to cause relax ...

[6] = system: cardiac stomach preparations from A. rubens; test: Relaxation of in vitro cardiac stomach preparations; design: species or system Asterias rubens; conditions: 10^−7 M, KCl pre-contraction
Description: To investigate if asterotocin affects muscle contractility in A. rubens, synthetic asterotocin (custom synthesised by PPR Ltd., Fareham, Hampshire, UK) was tested on three in vitro preparations: the cardiac stomach, apical muscle and tube feet. These three preparations have been used to examine the effects of other neuropeptides, and the methods employed have been described in detail previously. […] Therefore, the effects of asterotocin on cardiac stomach and apical muscle preparations were examined in more detail.
Cardiac stomach preparations from 16 starfish (8–13.5 cm in diameter) were incubated at 11 °C in an aerated organ bath containing artificial seawater with 3 × 10^−2 M added KCl. This induces sustained contraction of the cardiac stomach, which facilitates recording of the effects of neuropeptides that act as muscle relaxants. The contractile state of preparations was monitored using a high-grade isotonic transducer (model 60-3001; Harvard Apparatus, Cambridge, UK) connected to a Goerz SE 120 chart recorder (Recorderlab, Sutton, Surrey, UK) or using a high-grade isotonic transducer (MLT0015; ADInstruments Ltd., Oxford, UK) connected to data acquisition hardware (PowerLab 2/26, ADInstruments Ltd.) via a bridge amplifier (FE221 Bridge Amp, ADInstruments Ltd.). The output from the PowerLab was recorded using LabChart (v8.0.7) software installed on a laptop computer (Lenovo E540, Windows 7 Professional). To obtain representative images of the effects of asterotocin, traces were exported from LabChart into Adobe Photoshop and the function ‘Select and Mask’ was utilised to remove the background grid pattern.
The percentage relaxation at each concentration was calculated relative to the maximal relaxing effect produced by asterotocin in each preparation. […] For these experiments, the effect of 10^−7 M S2 was defined as 100%, and the effect of 10^−7 M asterotocin was calculated as a percentage of the effect of 10^−7 M S2. The relaxing effects of asterotocin and S2 on cardiac stomach preparations were analysed statistically using the Mann-Whitney U test.

A. rubens [7] = conditions: cited from earlier work
Description: Starfish feed by firstly prying apart the bivalve shells of prey (e.g. mussels) with their tube feet and then […] cardiac stomach out of their mouth and over the exposed digestible soft tissues. In order for the cardiac stomach to be everted, it must be in a relaxed state, and therefore, neuropeptides that cause cardiac stomach relaxation in vitro are potential mediators of eversion in vivo.

A. rubens [8] = test: Body posture / arm flexion after injection; type: in vivo, Asterias rubens; conditions: S2, compared with asterotocin
A. rubens [9] = test: Righting behaviour following 4-week starvation; type: in vivo, Asterias rubens
Description: To examine the specificity of the effects of asterotocin on starfish righting behaviour, an experiment was performed where the righting time of starfish (5.5–9.6 cm in diameter; starved for 4 weeks prior to testing) was measured before injection (n = 60; pooled from the three treatment groups) and after injection with 5 μl 10^−3 M asterotocin (n = 20) or 5 μl 10^−3 M S2 (n = 20) or 5 μl distilled water (n = 20). The time taken to right in seconds as well as the percentage difference between righting with and without injection was calculated. The percentage time difference between righting with and without injection in water-injected, asterotocin-injected and S2-injected animals was determined and plotted as a separated box and whiskers graph in Prism 6 (GraphPad 6). The effect of neuropeptides on righting behaviour was analysed statistically using the Mann-Whitney U test or a one-way ANOVA test with a post hoc Dunnett’s multiple comparisons test.

insects = conditions: cited from earlier work
Description: Thus, the evolutionary origin of at least 30 neuropeptide families (including VP/OT-type) can be traced back to the bilaterian common ancestor of deuterostomes (vertebrates and invertebrate chordates, hemichordates, echinoderms) and protostomes (e.g. arthropods, nematodes, molluscs, annelids). Definitive evidence of the antiquity of VP/OT-type neuropeptides was first obtained with the purification and sequencing of VP/OT-type neuropeptides from insect and molluscan species [[8], ...

octopus rectum = conditions: in vitro; cited from earlier work
Description: What about in the protostome branch of the Bilateria? […] In the cephalopod mollusc Octopus vulgaris, the VP/OT-type signalling system has been characterised in detail and comprises two VP/OT-type neuropeptides, octopressin (OP) and cephalotocin (CT), and three cognate receptors (OPR, CTR1, CTR2). Furthermore, OP is expressed in the regions of the octopus nervous system involved in the control o ...

## CYFQNCPRG-NH2 (disulfide) [vasopressin, human vasopressin; cyclic amidated nonapeptide (…-NH2)]
Mammals [1]
  blood pressure, in words: increases blood pressure
  diuresis, in words: acts as an antidiuretic
[2]
  receptor activation at highest concentration tested, in words: did not cause significant receptor activation; also recorded: not significantly higher than the basal media control

## CYIQNCPLG-NH2 (disulfide) [oxytocin, human oxytocin (…-NH2)]
Mammals [1]
  uterine contraction and lactation, in words: causes uterine contraction and lactation
Mammals [3]
  effect on feeding, in words: inhibits feeding
[2]
  receptor activation at highest concentration tested, in words: did not cause significant receptor activation; also recorded: not significantly higher than the basal media control

## NGFFYamide
[2]
  receptor activation at highest concentration tested, in words: did not cause significant receptor activation; also recorded: not significantly higher than the basal media control

## SGPYSFNSGLTF-NH2 [S2, SALMFamide neuropeptide S2 (…-NH2)]
A. rubens [4]
  cardiac stomach eversion, in words: cardiac stomach eversion was not observed; also recorded: stomach eversion was not observed in any of the animals
[5]
  effect on cardiac stomach preparations, in words: acts as a relaxant of cardiac stomach preparations; also recorded: cause relaxation of A. rubens cardiac stomach preparations in vitro
[6]; replicate 1
  relaxing effect, S2 effect defined as 100%: 100%
[6]; replicate 2
  relaxing effect, S2 effect defined as 100%: 100%
[6]; replicate 3
  relaxing effect, S2 effect defined as 100%: 100%
[6]; replicate 4
  relaxing effect, S2 effect defined as 100%: 100%
[6]; replicate 5
  relaxing effect, S2 effect defined as 100%: 100%
A. rubens [7]; 100 μl of 10^−3 M into perivisceral coelom
  cardiac stomach eversion, in words (earlier work): triggers cardiac stomach eversion
A. rubens [7]; injected in vivo
  cardiac stomach eversion, in words (earlier work): induces cardiac stomach eversion when injected in vivo
A. rubens [8]
  posture change, in words: does not induce the changes in posture
A. rubens [9]; 5 μl of 10^−3 M S2, n = 20
  significance of righting time vs water-injected, in words: not significantly different
A. rubens [9]; 5 μl of 10^−3 M, mean ± SEM, n = 20, water 341 ± 59 s, non-injected 345 ± 35 s
  mean righting time: 312 ± 40 s
A. rubens [9]; 5 μl of 10^−3 M, n = 20, water − 1.8 ± 13%
  mean percentage righting time difference with vs without injection: 15 ± 12%

## inotocin
insects
  role in urine production, in words: VP-like role in regulating urine production

## octopressin
Octopus rectum
  effect on rectum, in words: myoexcitatory effects on in vitro preparations of the octopus rectum
